Source: BindingDB's records for doi:10.1016/j.ejmech.2020.112655 (University of Michigan, 2020)
Bridge positions count the residues as written; N and C are the ends. Peptide text beside a SMILES is read from it.

Molecular target: Eukaryotic translation initiation factor 4E (Homo sapiens, UniProt P06730)
Assay: Binding affinity to recombinant human 10His-tagged eIF4E expressed in Escherichia coli BL21 (DE3) cells assessed as dissociation constant by surface plasmon resonance analysis

Chain of Eukaryotic translation initiation factor 4E (P06730 whole entry): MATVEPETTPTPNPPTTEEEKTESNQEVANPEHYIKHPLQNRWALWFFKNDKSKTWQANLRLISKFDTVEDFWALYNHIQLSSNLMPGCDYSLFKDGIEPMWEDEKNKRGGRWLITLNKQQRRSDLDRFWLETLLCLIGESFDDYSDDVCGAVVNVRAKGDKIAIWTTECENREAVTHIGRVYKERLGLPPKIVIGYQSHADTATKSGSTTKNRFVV

Structure (SMILES)	koff
CC[C@H](C)[C@H](NC(=O)[C@H](CCCNC(=N)N)NC(C)=O)C(=O)N[C@H](C(=O)N[C@@H](Cc1ccc(O)cc1)C(=O)N[C@@H](CC(=O)O)C(=O)N[C@@H](CCCNC(=N)N)C(=O)N[C@H]1CCC(=O)NCCCC[C@@H](C(=O)N[C@@H](CS)C(=O)N[C@@H](CCCNC(=N)N)C(N)=O)NC(=O)[C@H](CCSC)NC(=O)[C@H](CC(C)C)NC(=O)[C@H](Cc2ccccc2)NC1=O)[C@@H](C)CC (Ac-RIIYDREFLMKCR-NH2; lactam 7-11)	0.0069 s⁻¹
CC[C@H](C)[C@H](NC(=O)[C@H](CCCNC(=N)N)NC(C)=O)C(=O)N[C@H](C(=O)N[C@@H](Cc1ccc(O)cc1)C(=O)N[C@@H](CC(=O)O)C(=O)N[C@@H](CCCNC(=N)N)C(=O)N[C@H]1CCCCNC(=O)CC[C@@H](C(=O)N[C@@H](CS)C(=O)N[C@@H](CCCNC(=N)N)C(N)=O)NC(=O)[C@H](CCSC)NC(=O)[C@H](CC(C)C)NC(=O)[C@H](Cc2ccccc2)NC1=O)[C@@H](C)CC (Ac-RIIYDRKFLMECR-NH2; lactam 7-11)	0.0042 s⁻¹
